Experiment [1] relates to nitric oxide production in LPS-treated BV2 cells. In words: Nitric oxide production (Griess) in LPS-treated BV2 cells. Type of experiment: cell-based, mouse. The following applies: for NO production: LPS-treated BV2 cells, FIG. 4 (lower), 8a; for IC50: Mus musculus, read-out: IC50 (NO production). The protocol:
BV2 cells were seeded at a density of 4 x 10^5 cells/well into 96-well plates, and primary microglial cells isolated from the brain of […] ICR mice were seeded at a density of 4 x 10^5 cells/well into 24-well plates.
The culture media were collected and measured for NO production using a Griess reagent solution (1% sulfanilamide and 0.1% N-1-naphthyl ethylenediamine dihydrochloride in 5% phosphoric acid). Briefly, a total of 50 µL of the supernatant was transferred to new 96-well plates and mixed with the same volume of the Griess reagent solution, followed by measuring OD at 570 nm. In addition, the cell viability was assayed in the same manner as in Experimental Example 2.
(Nitrite, measured by Griess reagent, commonly stands in for NO production.)

For experiment [2], the system named is LPS-treated primary microglia. The experiment is described as follows: Cell viability of LPS-treated primary microglia. Type of experiment: cell-based, ICR mice. The conditions noted are these: FIG. 9b.
A further experiment concerns NGF release in C6 cells. The experiment is described as follows: Nerve growth factor (NGF) release in C6 cells (ELISA). Type of experiment: cell-based, rat. The following applies: 5 µM, 24 hours, compared to the normal group, FIG. 13. As for the experimental part:
C6 cells were seeded at a density of 4x10^5 cells/well into 96-well plates and stabilized for 24 hours. Thereafter, the cells were treated with 5 µM of daidzein, o-desmethylangolensin, S-equal, SPA1413, or SPA1426 for 24 hours. The culture medium was collected and quantitatively measured for NGF released to the C6 culture supernatant using the enzyme immunoassay method Competitive Enzyme-Linked Immuno Assay (ELISA) kit (R&D systems, Minneapolis, MN, USA). The NGF releases from the groups treated with the samples were evaluated relative to that from the normal group, which was set to be 100%, and the results are depicted in FIG. 13.

The next experiment relates to p38. The experiment is described as follows: p38 protein expression (western blot) in LPS-treated BV2 cells. Type of experiment: cell-based, mouse. The conditions noted are these: 5 µM, compared to the LPS-treated group, FIG. 12b. The protocol:
BV2 cells were aliquoted at a density of 1x10^6 cells/well into 60 mm dishes and stabilized for 24 hours. Thereafter, the cells were treated with 5 µM of S-equal, SPA1413, or SPA1426 for 30 minutes and then with LPS (100 ng/ml) for 24 hours at 37° C. After being cultured to reach 100% confluence, the cells were washed with PBS and lysed with a lysis buffer (PRO-PREP™ Protein Extraction Solution, Intron Biotechnology, Seongnam, Korea). With bovine serum albumin (BSA) serving as a standard, the protein contents of the lysate supernatants were measured by Bio-Rad Protein Assay (Bio-Rad, California, USA) to determine the total protein content in each sample. Afterwards, each of the samples was loaded in a protein amount of 30 µg on a 10-12% SDS-PAGE gel and run for electrophoresis. The electrophorized proteins were transferred to a PVDF membrane which was then blocked with 5% skim milk and incubated with antibodies to JNK or p38 (Cell Signaling Technologies, Massachusetts, USA). Detection was conducted with a ChemiDoc XRS+ imaging system (Bio-Rad, CA, USA).

The test system of the next experiment is N2a cells. The experiment is described as follows: Neurite outgrowth in N2a cells (Incucyte). Type of experiment: cell-based, mouse. The following applies: 5 µM, FIGS. 14a and 14b. The protocol:
N2a cells were aliquoted at a density of 1x10^4 cells/well into 24-well plates, treated with daidzein, o-desmethylangolensin, S-equal, SPA1413 and SPA1426 at 5 µM, and evaluated for neurite outgrowth by the real-time cell monitoring system InCucyte. The cells were photographed every 2 hours, and the neurites were counted through Incucyte software.

The next experiment deals with TNF-a. The experiment is described as follows: TNF-a production (ELISA) in LPS-treated BV2 cells. Type of experiment: cell-based, mouse. The following applies: 5 µM, LPS (100 ng/ml) 24 hours, FIG. 10b. As for the experimental part:
(§1) BV2 cells were seeded at a density of 4x10^5 cells/well into 96-well plates and stabilized for 24 hours. Thereafter, the cells were treated with 5 µM of daidzein, o-desmethylangolensin, S-equal, SPA1413, or SPA1426 for 30 minutes and then with LPS (100 ng/ml) for 24 hours at 37° C. The culture medium was collected and quantitatively measured for IL-6 and TNF-a released to the BV2 culture supernatant, using the enzyme immunoassay method […] Enzyme-Linked Immuno Assay (ELISA) kit (R&D systems, Minneapolis, MN, USA). The IL-6 and TNF-a releases from the groups treated with the samples were evaluated relative to that from the LPS-treated group, which was set to be 100%, and the results are depicted in FIGS. 10a and 10b.

The target in a further experiment is MGO-AGEs (Bos taurus, UniProt P02769). In words: Breaking of MGO-induced advanced glycation end products (TNBSA free amine). Type of experiment: biochemical. The protocol:
Bovine serum albumin (BSA) was stored at 37° C. for 7 days in mixture with methylglyoxal (MGO) and sodium azide) to prepare AGEs. The AGEs derived from MGO are referred to as “MGO-AGEs”. MGO-AGEs with a concentration of 1 mg/ml were treated for 24 hours with various concentrations (0.1, 0.2, and 0.4 mM) of SPA1413. As a positive control, aminoguanidine (AG), known as an AGE inhibitor, was used. MGO-AGEs were reacted with 2,4,6-trinitrobenzene sulfonic acid (TNBSA) and 4% sodium bicarbonate, followed by adding 10% sodium dodecyl sulfate and 1 N HCl to terminate the reaction. Absorbance was read at 335 nm accounting for free amines, which resulted from the breaking degradation of AGEs, in a microplate to evaluate the efficacy of degrading AGEs.

For the next experiment, the system named is IL-6. In words: IL-6 production (ELISA) in LPS-treated BV2 cells. Format: cell-based, mouse. The following applies: 5 µM, LPS (100 ng/ml) 24 hours, FIG. 10a. The protocol: as §1

Molecules are shown by their SMILES. Like-named read-outs stand apart in the source and are kept apart here.

Chain of MGO-AGEs (P02769 25-607): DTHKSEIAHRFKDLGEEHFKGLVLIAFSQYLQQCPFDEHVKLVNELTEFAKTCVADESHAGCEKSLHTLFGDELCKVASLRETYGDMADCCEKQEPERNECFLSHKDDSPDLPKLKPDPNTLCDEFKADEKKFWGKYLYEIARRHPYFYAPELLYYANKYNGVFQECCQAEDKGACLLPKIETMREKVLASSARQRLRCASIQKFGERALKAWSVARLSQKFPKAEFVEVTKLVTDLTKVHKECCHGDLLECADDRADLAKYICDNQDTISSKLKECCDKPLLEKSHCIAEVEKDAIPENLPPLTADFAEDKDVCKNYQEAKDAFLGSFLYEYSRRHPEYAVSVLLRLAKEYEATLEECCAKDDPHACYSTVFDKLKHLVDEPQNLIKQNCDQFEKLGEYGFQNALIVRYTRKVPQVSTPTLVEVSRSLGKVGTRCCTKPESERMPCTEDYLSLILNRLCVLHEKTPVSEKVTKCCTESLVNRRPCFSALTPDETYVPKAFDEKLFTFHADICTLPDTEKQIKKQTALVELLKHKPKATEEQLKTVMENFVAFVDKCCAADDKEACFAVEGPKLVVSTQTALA

For `Oc1ccc(C2=Cc3ccc(O)cc3OC2)cc1` [SPA1413, 3-(4-Hydroxyphenyl)-2H-chromen-7-ol], the NO production entry in experiment [1] was “decreased NO production in dose-dependent manners”. Also, the 50% inhibitory concentration (IC50) in experiment [1] (BV-2, 24 h) was found to be 5.2 µM. In addition, the “cell viability compared to the group treated with LPS” value in experiment [2] is listed as “increased”. The NGF content result in the experiment with NGF release in C6 cells is recorded as “significantly increased”. The “expression level of P38 protein” value in the experiment on p38 is on record as “decreased”. Moreover, the neurite outgrowth entry in the experiment with N2a cells was “significantly increased”. The TNF-a production entry in the experiment on TNF-a was “significantly decreased”. Also, the “free amines from breaking of MGO-AGEs, compared to the negative control (MGO-AGEs)” value at MGO-AGEs (0.1, 0.2 and 0.4 mM, 24 hours, MGO-AGEs 1 mg/ml, FIG. 18) is “increased levels of free amines”. Moreover, the IL-6 production result with IL-6 is on record as “significantly decreased”.

Consider `CCCC(=O)Oc1ccc(C2=Cc3ccc(OC(=O)CCC)cc3OC2)cc1` [SPA1426, 4-(7-(butyryloxy)-2H-chromen-3-yl)phenyl butyrate], for which the NO production entry in experiment [1] is on record as “decreased NO production in dose-dependent manners”. Also, in experiment [1] (BV-2, LPS (100 ng/ml) 24 hours, Griess reagent, cell type not stated in Table 1), the IC50 is 3.67 µM. Also, the “cell viability compared to the group treated with LPS” value in experiment [2] is recorded as “increased”. In addition, the NGF content entry in the experiment on NGF release in C6 cells was “significantly increased”. In the experiment on p38, the “expression level of P38 protein” value was “decreased”. Also, the neurite outgrowth entry in the experiment with N2a cells is reported as “significantly increased”. Besides, the TNF-a production entry in the experiment on TNF-a is reported as “significantly decreased”. Also, the “free amines from breaking of MGO-AGEs, compared to SPA1413” value on MGO-AGEs (FIG. 19) was “higher levels of free amines”. For the same molecule, in the experiment with IL-6, the IL-6 production entry is listed as “significantly decreased”.

For orientation: IC50 means the concentration that inhibits the measured activity by half.

The record behind these values is patent publication US20230330059A1, “3-PHENYL-2H-CHROMENE DERIVATIVE AND PHARMACEUTICAL COMPOSITION FOR PREVENTING OR TREATING ALZHEIMER'S, CONTAINING SAME” (NEUROBIONET, INC., priority 2020, published 2023).
